Tests used:
CHEAL = assay: greenhouse experiment, post-emergence treatment, herbicidal activity against CHEAL; assay type: in vivo, Chenopodium album; conditions: application rate 0.5 kg/ha, post-emergence method; scale from 0 to 100
Description: (§1) The seeds of the test plants were sown separately for each species. For the post-emergence treatment, the test plants were first grown to a height of 3 to 15 cm, depending on the plant habit, and only then treated with the active ingredients which had been suspended or emulsified in water. For this purpose, the test plants were either sown directly and grown in the same containers, or they were first grown separately as seedlings and transplanted into the test containers a few days prior to treatment. Depending on the species, the plants were kept at 10-25° C. or 20-35° C. The test period extended over 2 to 4 weeks. During this time, the plants were tended, and their response to the individual treatments was evaluated. Evaluation was carried out using a scale from 0 to 100. 100 means no emergence of the plants, or complete destruction of at least the aerial moieties, and 0 means no damage, or normal course of growth. A good herbicidal activity is given at values of at least 70 and a very good herbicidal activity is given at values of at least 85. The plants used in the greenhouse experiments belonged to the following species: [table]

AMARE = assay: greenhouse experiment, post-emergence treatment, herbicidal activity against AMARE; assay type: in vivo, Amaranthus retroflexus; conditions: application rate 0.5 kg/ha, post-emergence method; scale from 0 to 100
Description: as §1

SMILES: O=c1oc2nccnc2c(O)c1-c1cc(Cl)cc(N2CCOCC2)c1C(F)(F)F [1-4, 7-[5-chloro-3-morpholino-2-(trifluoromethyl)phenyl]-8-hydroxy-pyrano[2,3-b]pyrazin-6-one]
- herbicidal activity against CHEAL (CHEAL): very good herbicidal activity (a very good herbicidal activity is given at values of at least 85)
- herbicidal activity against AMARE (AMARE): very good herbicidal activity (a very good herbicidal activity is given at values of at least 85)

From patent publication US20130012389A1, “Substituted Pyridazines Having Herbicidal Action” (BASF SE, priority 2010, published 2013)
